# Measured values as given in US20190211024A1 (priority 2016, published 2019).
structure (smiles),measurement,value
CC(C)SN1C=Cn2c(nc(=O)n2[N+](=O)[O-])N1.O.O (hydrate or solvate),melting point,185 °C
